Measured values from patent publication US7309718B2, “Dibenzocycloheptene compound” (UBE Industries, Ltd., priority 2001, dated 2007).
Where two headings read alike, the source gives them in different places.

How the values were obtained:
[1] = tested on: Leukotriene D4 (LTD4) induced respiratory constriction; experiment: Leukotriene D4 induced respiratory constriction test; assay type: in vivo, guinea pig; conditions: Cavia porcellus, po, read-out: LTD4 inhibitory activity
Description: Leukotriene D4 Induced Respiratory Constriction Test
Respiratory constriction was measured by modifying the method of Konzett and Rossler (Arch. Exp. Pathol. Pharmakol., 195, pp. 71-74 (1940)). Hartley male guinea pigs (400 to 500 g body weight, Japan SLC Inc.) were anesthetized with pentobarbital (50 mg/kg, s.c.), and a cannula was inserted into the trachea to carry out artificial ventilation with an artificial ventilator (manufactured by Harvard Apparatus, Model 683). An inner pressure of the respiratory tract was measured by a differential pressure transducer (Nihon Kohden, TP-603T) connected to the respiratory cannula and it is used as an index of respiratory constriction.
LTD4 (0.03, 0.06, 0.13, 0.25, 0.5, 1 and 2 μg/kg, Simga-Aldrich) was intravenously administered from a cannula inserted into the right jugular vein from a low dose with an interval of 5 minutes to cause a respiratory constricttion reaction and an increased amount of a respiratory inner pressure was measured. Test compound was suspended in 0.5% sodium carboxymethyl cellulose aqueous solution or dissolved in 30% propylene glycol aqueous solution, and orally administered 24 hours before administration of LTD4. Animals were fasted for 24 hours before administration of the Test compound. […] LTD4 inhibitory activity=(Dose of Compound administered)/{(ED50 of group to which Compound was added)/(ED50 of control group)-1}

[2] = target: T1, Leukotriene D4 (LTD4) receptor (Cavia porcellus, UniProt Q2NNR5); experiment: Leukotriene D4 receptor binding test ([3H]LTD4, lung cell membrane fraction); conditions: binding inhibition constant vs 0.2 nM [3H]LTD4, guinea pig lung cell membrane fraction, 25° C. 30 minutes
T1 sequence (Q2NNR5 1-340): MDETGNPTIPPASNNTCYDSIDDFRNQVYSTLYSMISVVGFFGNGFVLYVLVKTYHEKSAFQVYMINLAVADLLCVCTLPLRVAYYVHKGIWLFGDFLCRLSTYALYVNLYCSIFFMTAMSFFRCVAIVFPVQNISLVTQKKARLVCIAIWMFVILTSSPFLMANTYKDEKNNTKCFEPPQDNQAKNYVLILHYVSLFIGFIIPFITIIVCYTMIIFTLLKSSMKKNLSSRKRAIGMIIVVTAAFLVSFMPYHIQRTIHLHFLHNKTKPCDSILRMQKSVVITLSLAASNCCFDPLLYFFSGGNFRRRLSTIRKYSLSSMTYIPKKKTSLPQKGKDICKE
Description: Leukotriene D4 Receptor Binding Test
<Preparation of Receptor Sample>
As a receptor sample, a lung cell membrane fraction from guinea pigs was used. […] Lungs of Hartley male guinea pigs (400 to 500 g body weight, Japan SLC Inc.) were isolated, and perfused with a physiological saline, and then, adding 10 mM of PIPES, 10 mM of MgCl2 and 10 mM of CaCl2 buffer (pH 7.5) to the lung tissue and the mixture was homogenized. This homogenate was centrifuged at 70,000×g for 10 minutes to obtain a membrane fraction.
<Leukotriene D4 Receptor Binding Test>
To 0.42 mg of the receptor sample were added 10 mM of PIPES, 10 mM of MgCl2 and 10 mM of CaCl2 buffer (pH 7.5) to make the total amount of 480 μl, and 10 μl of [^3H] LTD4 (NEN Life Science Products Inc.) and 10 μl of a test compound in dimethylsulfoxide were added to the mixture, and the resulting mixture was incubated at 25° C. for 30 minutes. The mixtures thus incubated were filtered through a glass fiber filter (Whatman International Ltd., GF/C) using cell harvester (Biomedical Research & Development Laboratories, Inc., M-30R). The filter paper was washed with 10 mM of Tris and 100 mM of NaCl buffer (pH 7.5), and 5 ml of a liquid scintillator (nacalai tesque inc., clearsol I) was added thereto, and radioactivity was measured by a liquid scintillation analyzer (Packard Instrument Co., 2000CA). When a dissociation constant (Kd) of LTD4 was to be obtained, [^3H] LTD4 with 0.03 to 0.5 nM was used, and 1 μM of non-radioactive LTD4 was added. When a binding inhibition constant (Ki) of the Test compound is to be measured, [^3H] LTD4 with 0.2 nM was used.

[3] = p.o. 24 h before LTD4 i.v., dose of compound shifting the control LTD4 dose-reaction curve two-times to higher dose, anesthetized guinea pigs

Q: For `O=C([O-])COC1c2cc(/C=C/c3ccc4cc(F)c(Cl)cc4n3)ccc2C=Cc2c(Cl)cccc21.[Na+]` (stereo not shown) [Example Compound 19, Sodium [3-[(E)-2-(7-chloro-6-fluoroquinolin-2-yl)ethenyl]-9-chloro-5H-dibenzo[a,d]cyclohepten-5-yl]oxy-acetate], which ED (2-fold shift of LTD4 dose-response) [1, 3] is on record?
A: 2.43 µg/kg

Q: With `O=C(O)COC1c2ccccc2C=Cc2ccc(/C=C/c3ccc4ccc(Cl)cc4n3)cc21` (stereo not shown) [Example Compound 29, Sodium [3-[(E)-2-(7-chloroquinolin-2-yl)ethenyl]-5H-dibenzo[a,d]cyclohepten-5-yl]oxyacetate] as the molecule, how does the Ki [2] read?
A: 0.251 nM

Q: For `O=C([O-])CCSC1c2ccccc2C=Cc2ccc(/C=C/c3ccc4cc(F)c(F)cc4n3)cc21.[Na+]` (stereo not shown) [Example Compound 4, Sodium 3-{[3-[(E)-2-(6,7-difluoroquinolin-2-yl)ethenyl]-5H-dibenzo[a,d]cyclohepten-5-yl]thio}propionate], which Ki [2] is on record?
A: 0.2 nM

Q: What about the melting point of the same molecule?
A: 213 to 216 °C

Q: What about the ED (2-fold shift of LTD4 dose-response) ([1]; 24 h) of the same molecule?
A: 1.91 µg/kg

Q: For `C[C@H](CSC1c2ccccc2C=Cc2ccc(/C=C/c3ccc4cc(F)c(F)cc4n3)cc21)C(=O)[O-].[Na+]` (stereo partly shown), which melting point is on record?
A: 240 to 249 °C

Q: For `O=C([O-])CCSC1c2ccccc2C=Cc2ccc(/C=C/c3ccc4cc(F)c(Cl)cc4n3)cc21.[Na+]` (stereo not shown) [Example Compound 7, Sodium 3-{[3-[(E)-2-(7-chloro-6-fluoroquinolin-2-yl)ethenyl]-5H-dibenzo[a,d]cyclohepten-5-yl]thio}propionate], which Ki [2] is on record?
A: 0.2 nM

Q: And the melting point?
A: 228 to 238 °C

Q: What about the ED (2-fold shift of LTD4 dose-response) ([1]; 24 h) of the same molecule?
A: 0.85 µg/kg

Q: Which ED (2-fold shift of LTD4 dose-response) ([1]; 24 h) does the source give for `O=C([O-])CCSC1c2cc(/C=C/c3ccc4cc(F)c(Cl)cc4n3)ccc2C=Cc2c1cccc2C(F)(F)F.[Na+]` (stereo not shown) [Example Compound 28, Sodium 3-{[3-[(E)-2-(7-chloro-6-fluoroquinolin-2-yl)ethenyl]-9-trifluoromethyl-5H-dibenzo[a,d]cyclohepten-5-yl]thio}propionate] here?
A: 1.7 µg/kg

Q: Which Ki [2] does the source give for `O=C(O)CCSC1c2ccccc2C=Cc2ccc(/C=C/c3ccc4c(n3)CCCC4)cc21` (stereo not shown) [Example Compound 9, Sodium 3-{[3-[(E)-2-(5,6,7,8-tetrahydroquinolin-2-yl)ethenyl]-5H-dibenzo[a,d]cyclohepten-5-yl]thio}propionate] here?
A: 0.158 nM

Q: Which pKi [2] does the source give for “Sodium [3-[(E)-2-(7-chloroquinolin-2-yl)ethenyl]-5H-dibenzo[a,d]cyclohepten-5-yl]thioacetate [Example Compound 30]” here?
A: 9.7

Q: Which ED (2-fold shift of LTD4 dose-response) ([1]; 24 h) does the source give for `O=C([O-])CCSC1c2cc(/C=C/c3ccc4cc(F)c(Cl)cc4n3)ccc2C=Cc2c(F)cccc21.[Na+]` (stereo not shown) [Example Compound 18, Sodium 3-{[3-[(E)-2-(7-chloro-6-fluoroquinolin-2-yl)ethenyl]-9-fluoro-5H-dibenzo[a,d]cyclohepten-5-yl]thio}-propionate] here?
A: 1.12 µg/kg

Q: For `O=C([O-])CC1CC1CSC1c2ccccc2C=Cc2ccc(/C=C/c3ccc4cc(F)c(Cl)cc4n3)cc21.[Na+]` (stereo not shown) [Example Compound 16, Sodium 3-{[3-[(E)-2-(7-chloro-6-fluoroquinolin-2-yl)ethenyl]-5H-dibenzo[a,d]cyclohepten-5-yl]thiomethyl}-cyclopropaneacetate], which ED (2-fold shift of LTD4 dose-response) ([1]; 24 h) is on record?
A: 0.79 µg/kg

Q: For `O=C([O-])CCSC1c2ccccc2C=Cc2ccc(/C=C/c3ccc4ccc(Cl)cc4n3)cc21.[Na+]` (stereo not shown) [Example Compound 8, Sodium 3-{[3-[(E)-2-(7-chloroquinolin-2-yl)ethenyl]-5H-dibenzo[a,d]cyclohepten-5-yl]thio}propionate], which melting point is on record?
A: 193 to 203 °C

Q: What about the ED (2-fold shift of LTD4 dose-response) ([1]; 24 h) of the same molecule?
A: 5.3 µg/kg

Q: Which Ki [2] does the source give for `C[C@H](COC1c2ccccc2C=Cc2ccc(/C=C/c3ccc4cc(F)c(Cl)cc4n3)cc21)C(=O)O` (stereo partly drawn) [Example Compound 13, Sodium 3-{[3-[(E)-2-(7-chloro-6-fluoroquinolin-2-yl)ethenyl]-5H-dibenzo[a,d]cyclohepten-5-yl]oxy}-2-(R)-methylpropionate] here?
A: 0.126 nM

Q: Which Ki [2] does the source give for `C[C@H](COC1c2ccccc2C=Cc2ccc(/C=C/c3ccc4cc(F)c(F)cc4n3)cc21)C(=O)[O-].[Na+]` (stereo partly drawn) [Example Compound 10, Sodium 3-{[3-[(E)-2-(6,7-difluoroquinolin-2-yl)ethenyl]-5H-dibenzo[a,d]cyclohepten-5-yl]oxy}-2-(R)-methyl-propionate] here?
A: 0.1 nM

Q: What about the ED (2-fold shift of LTD4 dose-response) [1, 3] of the same molecule?
A: 9.93 µg/kg

Q: For `O=C([O-])COC1c2ccccc2C=Cc2ccc(/C=C/c3ccc4cc(F)c(F)cc4n3)cc21.[Na+]` (stereo not shown) [Example Compound 3, Sodium [3-[(E)-2-(6,7-difluoroquinolin-2-yl)ethenyl]-5H-dibenzo[a,d]cyclohepten-5-yl]oxyacetate], which Ki [2] is on record?
A: 0.1 nM

Q: And the melting point?
A: 213 to 227 °C

Q: And the ED (2-fold shift of LTD4 dose-response) [1, 3]?
A: 4.71 µg/kg

Q: Which Ki [2] does the source give for `O=C(O)CCOC1c2ccccc2C=Cc2ccc(/C=C/c3ccc4cc(F)c(Cl)cc4n3)cc21` (stereo not shown) [Example Compound 12, Sodium 3-{[3-[(E)-2-(7-chloro-6-fluoroquinolin-2-yl)ethenyl]-5H-dibenzo[a,d]cyclohepten-5-yl]oxy}propionate] here?
A: 0.2 nM

Q: For `O=C([O-])CCSC1c2cc(/C=C/c3ccc4cc(F)c(Cl)cc4n3)ccc2C=Cc2c(Cl)cccc21.[Na+]` (stereo not shown) [Example Compound 20, Sodium 3-{[3-[(E)-2-(7-chloro-6-fluoroquinolin-2-yl)ethenyl]-9-chloro-5H-dibenzo[a,d]cyclohepten-5-yl]thio}-propionate], which ED (2-fold shift of LTD4 dose-response) ([1]; 24 h) is on record?
A: 0.7 µg/kg

Q: Which Ki [2] does the source give for `O=C(O)CCSC1c2cc(/C=C/c3ccc4c(n3)CCCC4)ccc2C=Cc2c1cccc2C(F)(F)F` (stereo not shown) [Example Compound 31, Sodium 3-{[3-[(E)-2-(5,6,7,8-tetrahydroquinolin-2-yl)ethenyl]-9-trifluoromethyl-5H-dibenzo[a,d]cyclohepten-5-yl]thio}propionate] here?
A: 0.2 nM

Q: Which ED (2-fold shift of LTD4 dose-response) [1, 3] does the source give for `O=C(O)CCSC1c2ccccc2COc2ccc(OCc3ccc4cc(F)c(Cl)cc4n3)cc21` (stereo not shown) [Compound A, 3-[2-(7-chloro-6-fluoroquinolin-2-yl)methoxy-6,11-dihydrobenz[b,e]oxepin-11-yl]thiopropionic acid, reference compound] here?
A: 25.5 µg/kg

Q: Which Ki [2] does the source give for `O=C(O)COC1c2ccccc2C=Cc2ccc(/C=C/c3ccc4cc(F)c(Cl)cc4n3)cc21` (stereo not shown) [Example Compound 11, Sodium [3-[(E)-2-(7-chloro-6-fluoroquinolin-2-yl)ethenyl]-5H-dibenzo[a,d]cyclohepten-5-yl]oxyacetate] here?
A: 0.126 nM

Q: With `O=C(O)COC1c2cc(/C=C/c3ccc4cc(F)c(Cl)cc4n3)ccc2C=Cc2c(F)cccc21` (stereo not shown) [Example Compound 17, Sodium [3-[(E)-2-(7-chloro-6-fluoroquinolin-2-yl)ethenyl]-9-fluoro-5H-dibenzo[a,d]cyclohepten-5-yl]oxy-acetate] as the molecule, how does the Ki [2] read?
A: 0.158 nM
